Reference: patent EP1986670B1, “INTESTINAL ALPHA-GLUCOSIDASE INHIBITORS AND A PROCESS FOR THE ISOLATION AND USE THEREOF” (Council of Scientific and Industrial Research, priority 2006, dated 2007)

Biological target: intestinal α-glucosidase
Experiment: Assay for intestinal α-glucosidase inhibition (p-nitrophenyl α-D-glucopyranoside substrate, read at 405 nm)
Format: biochemical, Rat
Conditions: for Intestinal α-glucosidase inhibitory activity IC50 VALUES: crude enzyme from rat intestinal acetone powder, substrate p-nitrophenyl α-D-glucopyranoside, phosphate buffer pH6.8, triplicate
Experimental: Example 2: Assay for intestinal α-glucosidase inhibition:- Rat intestinal acetone powder (sigma chemicals, USA) in normal saline in ration of 100:1 (w/v) was sonicated properly. Supernatant obtained after centrifugation at 3000rpm x 30 min at 25°C was treated as crude source of mammalian intestinal α-glucosidase 10 µL of test samples prepared from either extracts or the molecules (5mg/ml in DMSO) were incubated in 100µL of 100 mM phosphate buffer (pH6.8) with 50 µL of crude enzyme for 5 minutes. Thereafter 50 µL of substrate (5mM, p-nitrophenyl α-D-glucopyranoside prepared in the buffer)was added. After 5 minutes incubation, released p-nitro phenol was read at 405nm spectrophotometrically. For control and blank readings at the place of test samples 10 µL of DMSO and at the place of substrate 50 µL of buffer was added: In order to compensate interference from colored compounds there individual blanks were prepared and spectophotpmetric reading were evaluated accordingly the percent inhibition was calculated as follows:- […] [formula] and 50% inhibitory concentration(IC50)for test samples were calculated by applying suitable regression analysis from the data obtain from serial dilution of the test samples concentrations. Each test sample and other control samples were run in triplicate.

O=c1cc(-c2ccccc2)oc2cc(O)c(O)c(O)c12 [Baicalein, 5,6,7-trihydroxy-2-phenyl-chromen-4-one]
in vitro α-glucosidase inhibitory activity IC50: 38.71 µg/mL
Intestinal α-glucosidase inhibitory activity IC50 VALUES: 38.71 µg/mL

COc1c(O)cc2oc(-c3ccccc3)cc(=O)c2c1O [Oroxylin-A, 5,7-Dihydroxy-6-methoxy-2-phenyl-chromen-4-one]
in vitro α-glucosidase inhibitory activity IC50: 25.90 µg/mL
Intestinal α-glucosidase inhibitory activity IC50 VALUES: 25.90 µg/mL

O=c1cc(-c2ccccc2)oc2cc(O)cc(O)c12 [Chrysin, 5,7-dihydroxy-2-phenyl-chromen-4-one]
in vitro α-glucosidase inhibitory activity IC50: 57.59 µg/mL
Intestinal α-glucosidase inhibitory activity IC50 VALUES: 57.59 µg/mL

COc1cc(O)c2c(=O)cc(-c3ccccc3)oc2c1 [Methoxy chrysin, 5-hydroxy-7-methoxy-2-phenyl-chromen-4-one]
Intestinal α-glucosidase inhibitory activity IC50 VALUES: 95.39 µg/mL

COC(=O)[C@H]1O[C@@H](Oc2cc3oc(-c4ccccc4)cc(=O)c3c(O)c2OC)[C@H](O)[C@@H](O)[C@@H]1O [Oroxyloside methyl ester]
in vitro α-glucosidase inhibitory activity IC50: 97.31 µg/mL
Intestinal α-glucosidase inhibitory activity IC50 VALUES: 97.31 µg/mL
